Paper PMC7349874, “High Content Screening Using New U2OS Reporter Cell Models Identifies Harmol Hydrochloride as a Selective and Competitive Antagonist of the Androgen Receptor” (Cells, 2020)
Structures can show the parent of a compound that is named as a salt.

What was measured:
[1] = biological target: T1, pregnane X receptor (PXR) (Homo sapiens, UniProt O75469); details: 16 h
T1 sequence (O75469 146-433 limits assumed): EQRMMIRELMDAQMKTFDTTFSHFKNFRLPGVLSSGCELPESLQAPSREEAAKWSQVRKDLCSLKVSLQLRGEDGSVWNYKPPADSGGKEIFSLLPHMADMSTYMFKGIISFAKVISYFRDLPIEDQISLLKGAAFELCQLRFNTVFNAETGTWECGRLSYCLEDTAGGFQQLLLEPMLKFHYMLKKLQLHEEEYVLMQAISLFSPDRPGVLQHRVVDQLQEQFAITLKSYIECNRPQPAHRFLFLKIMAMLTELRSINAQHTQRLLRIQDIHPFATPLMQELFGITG
Excerpt: (§1) HG5LN MR and HG5LN PXR luciferase reporter cell lines were obtained by stable expression of individual ligand binding domains fused to GAL4 DNA binding domain in HG5LN (HeLa GAL4REx5-luciferase) cells, as previously described. HELN PR cells were obtained by stably expressing PR with the ERα DNA binding domain in HELN (HeLa ERE-luciferase) cells and HMLN GR cells were obtained by stable co-transfection of HeLa cells with a plasmid encoding for a glucocorticoid responsive gene (MMTV-Luc-SV-Neo) and a glucocorticoid receptor expressing plasmid, as previously described.
(§2) Agonistic activities were evaluated in HMLN GR, HELN PR, HG5LN MR, and HG5LN PXR cells, using dexamethasone 100 nM, R5020 100 nM, aldosterone 100 nM, and SR12813 3 μM as a positive control, respectively. […] RU486 was used as a control antagonist for GR and PR, and spironolactone for MR.
(§3) HMLN glucocorticoid receptor (GR), HG5LN mineralocorticoid receptor (MR), HELN progesterone receptor (PR) and HG5LN PXR cells were used to evaluate the antagonistic effect of the tested compounds on (A) the glucocorticoid receptor (GR), (B) the mineralocorticoid receptor (MR), (C) the progesterone receptor (PR) and (D) the agonistic activity towards the pregnane X receptor (PXR). […]

[2] = biological target: T2, full-length AR (Homo sapiens, UniProt P10275); assay: Transactivation assay in DU145 cells transiently overexpressing full-length AR; format: cell-based; details: 1 nM R1881
T2 sequence (P10275 1-920): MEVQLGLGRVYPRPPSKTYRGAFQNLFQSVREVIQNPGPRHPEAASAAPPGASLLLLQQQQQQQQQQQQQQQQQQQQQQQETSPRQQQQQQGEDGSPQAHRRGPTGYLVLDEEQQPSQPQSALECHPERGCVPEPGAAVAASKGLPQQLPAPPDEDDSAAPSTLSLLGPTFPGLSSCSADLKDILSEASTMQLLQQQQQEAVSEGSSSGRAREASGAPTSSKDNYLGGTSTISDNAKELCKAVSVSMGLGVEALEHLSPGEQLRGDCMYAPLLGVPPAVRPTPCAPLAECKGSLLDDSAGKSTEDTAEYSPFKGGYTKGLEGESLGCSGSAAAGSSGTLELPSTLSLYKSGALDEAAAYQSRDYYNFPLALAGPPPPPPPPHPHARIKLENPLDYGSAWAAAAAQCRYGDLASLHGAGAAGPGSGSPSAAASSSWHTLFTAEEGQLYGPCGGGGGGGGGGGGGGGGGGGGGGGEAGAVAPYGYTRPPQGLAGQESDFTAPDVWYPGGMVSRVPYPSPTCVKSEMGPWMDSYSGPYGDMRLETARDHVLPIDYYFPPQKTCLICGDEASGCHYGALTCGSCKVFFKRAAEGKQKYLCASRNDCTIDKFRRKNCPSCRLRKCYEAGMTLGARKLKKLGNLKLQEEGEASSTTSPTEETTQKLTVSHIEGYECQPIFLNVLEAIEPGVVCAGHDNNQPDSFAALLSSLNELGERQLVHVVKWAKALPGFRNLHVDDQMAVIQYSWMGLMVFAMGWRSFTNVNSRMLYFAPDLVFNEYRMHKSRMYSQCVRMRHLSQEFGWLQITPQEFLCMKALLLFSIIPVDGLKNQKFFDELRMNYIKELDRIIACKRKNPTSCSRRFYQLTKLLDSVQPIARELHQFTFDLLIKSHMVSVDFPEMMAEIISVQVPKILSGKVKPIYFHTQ
Excerpt: transactivation assays as in Fig. 3.
performed in quadruplicate.
[Harmol Hydrochloride] (M)

[3] = tested on: VCaP cells; assay: Spheroid growth (CellTiter-Glo), VCaP; details: 7 days, 1 nM R1881
[4] = biological target: T3, progesterone receptor (PR) (Homo sapiens, UniProt P06401); assay: Transactivation assay in HELN PR cells; format: cell-based; details: 16 h, antagonism in the presence of 1 nM R5020
T3 sequence (P06401 679-933 limits assumed): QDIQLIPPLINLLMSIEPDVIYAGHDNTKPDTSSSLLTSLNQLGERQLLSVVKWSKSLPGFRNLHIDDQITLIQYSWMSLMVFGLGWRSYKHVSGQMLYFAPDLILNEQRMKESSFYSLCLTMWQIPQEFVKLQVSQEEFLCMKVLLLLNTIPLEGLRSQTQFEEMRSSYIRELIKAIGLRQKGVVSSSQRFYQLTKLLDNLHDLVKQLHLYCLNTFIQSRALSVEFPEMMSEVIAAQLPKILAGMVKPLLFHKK
Excerpt: as §1, §2, §3

[5] = tested on: U2OS-ARE-Luc control cells; assay: Luciferase activity in U2OS-ARE-Luc control cells; details: validation, up to 3 µM, 16 h
[6] = tested on: GR; assay: GR expression (RT-qPCR and Western blot) in VCaP cells; details: 3 µM, 24 h, 1 nM R1881
Experimental: LNCaP and VCaP cells were seeded in 6-well plates (10^6 and 2 × 10^6 cells per well, respectively) and, 48 h later, complete medium was replaced by charcoal-stripped medium with 5% FBS. Cells were then treated for 24 h with the tested compounds, and RNA extraction was performed using the Quick RNA Miniprep kit (Zymo-Research, Irvine, CA, USA), according to the manufacturer’s protocol. Reverse transcription was performed with 0.5 µg total RNA using the SuperScript III reverse transcriptase kit (ThermoFisher, Waltham, MA, USA), according to the manufacturer’s protocol, in a final volume of 20 µL. The levels of genes transcripts were measured by real time PCR using a LightCycler 480 system (Roche Life Science, Penzberg, Germany) in the presence of SYBRGreen (SYBR® Premix Ex Taq^tm) and the following primers: FKBP5, sense 5′-[sequence]-3′; antisense 5′-[sequence]-3′; PSA, sense 5′-[sequence]-3′; antisense 5′-[sequence]-3′; TMPRSS2, sense 5′-[sequence]-3′, antisense 5′-[sequence]-3′; GR, sense 5′-[sequence]-3′, antisense 5′-[sequence]-3′; HPRT, sense 5′-[sequence]-3′; antisense 5′-[sequence]-3′; GAPDH, sense 5′-[sequence]-3′; antisense 5′-[sequence]-3′. Expression levels were evaluated with the ΔΔCt method and were normalized to GAPDH. Results are expressed as mRNA expression, relative to control (untreated cells), and are the mean ± SEM of 3 independent experiments. […]

[7] = biological target: T4, full-length wild-type AR (hAR) (Homo sapiens, UniProt P10275); assay: Transactivation (luciferase) assay in U2OS-hAR-ARE-Luc reporter cells, screen and validation; format: cell-based; details: for Results of 1st screen on AR: 0.3, 1, 3, 10 µM, 16 h, hit = AR transcriptional activity changed by more than 50% dose-dependently, <20% effect in control cells
T4 sequence (P10275 1-920): T2 sequence (P10275 1-920)
Experimental: U2OS-hAR-ARE(Rad9)-Luc and U2OS-hARv7-ARE(PB)-Luc were then used to screen the Prestwick phytochemical library®, containing 320 natural compounds, at four concentrations (0.3, 1, 3, 10 µM) in duplicate.

[8] = listed as Harmol hydrochloride monohydrate

With `Cc1nccc2c1[nH]c1cc(O)ccc12` [harmol hydrochloride, Harmol hydrochloride monohydrate] the “Activity towards PXR (agonistic)” value [1] was “did not show any significant activity”, the “Inhibition of AR transactivation” value [2] was “significant inhibition of AR transactivation” and the “Growth of VCaP spheroids” value [3] was “A similar effect was observed”. The “Activity towards PR” value [4] was “did not show any significant activity”, the “Effect on luciferase activity in control cells” value [5] was “no effect” and the “Expression of GR at the mRNA and protein levels” value [6] was “neither harmol nor enzalutamide treatment could significantly alter the expression of GR”. The “Nature of AR inhibition (competitive or non-competitive)” value ([7]; 1 nM versus 100 nM R1881) was “competitive antagonism”, the “Results of 1st screen on AR” value [7, 8] was “Inhibition” and the “Results of 1st screen on AR” value ([7]; listed as harmol) was “active inhibitors of AR transcriptional activity”. The “Results of confirmatory screen (validation of AR inhibition)” value [7, 8] was “Confirmed” and the “Results of confirmatory screen (validation of AR inhibition)” value ([7]; listed as harmol) was “could impair the transcriptional activity of AR”.
